We go through 9 compounds from PubChem BioAssay (NCI).

The structures appear in SMILES notation.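 Cultured in 96-well plates, cells were exposed to test compound for 48 hours across five concentrations. The concentration for 50% growth inhibition is given as GI50. TGI: concentration producing complete growth inhibition.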 A value given as a limit tells only on which side of the number the result lay.

Some test systems named below: CAKI-1 renal; SK-MEL-2 melanoma; RPMI-8226 leukemia; EKVX NSCLC; KM12 colon; HL-60(TB) leukemia; M14 melanoma; SNB-75 CNS.
Common to all, as to assay: NCI tumour cell line growth inhibition, 48 h

With `COc1ccc(CC(NC(=O)[C@H](C)NC(=O)CN2CCOCC2)C(=O)N[C@@H](Cc2ccccc2)C(=O)[C@@]2(C)CO2)cc1` (stereo partly specified), the GI50 in the test with CAKI-1 renal was 4.29 µM; in the test with SK-MEL-2 melanoma it was 0.264 µM; in the test on RPMI-8226 leukemia it was 0.0565 µM; in the test on EKVX NSCLC, 0.469 µM; in the test with KM12 colon it was 0.162 µM; with HL-60(TB) leukemia it was 0.157 µM. Moreover, the GI50 in the test with M14 melanoma is 0.284 µM; in the test on SNB-75 CNS, 0.175 µM. Moreover, the TGI is above 57.8 µM in the test on CAKI-1 renal; 0.974 µM with SK-MEL-2 melanoma; above 100 µM in the test with RPMI-8226 leukemia; above 100 µM in the test on EKVX NSCLC; 0.338 µM in the test with KM12 colon; 2.5 µM with M14 melanoma. The same compound showed a TGI in the test on SNB-75 CNS of 0.427 µM.

For the compound `COc1cc(NCc2ccccc2O)c2ncccc2c1`, the GI50 was 6.02 µM in the test with CAKI-1 renal; 18.1 µM in the test on SK-MEL-2 melanoma; 11.8 µM in the test with RPMI-8226 leukemia; 19 µM with EKVX NSCLC; 22.5 µM in the test with KM12 colon; 18.5 µM in the test with HL-60(TB) leukemia. The values for the GI50 with M14 melanoma and in the test with SNB-75 CNS were 19 µM and 8.52 µM, respectively. The TGI was 34.1 µM in the test with CAKI-1 renal; 50.3 µM with SK-MEL-2 melanoma; 79.5 µM in the test on RPMI-8226 leukemia; 80.8 µM with EKVX NSCLC; above 100 µM with KM12 colon; 57 µM with HL-60(TB) leukemia. For the same compound, the figures for the TGI in the test on M14 melanoma and in the test with SNB-75 CNS were 53.6 µM and 59.3 µM, respectively.

On to `CC(=O)c1cc2c(c3ccsc13)-c1ccccc1CC2`, for which the GI50 in the test on CAKI-1 renal is 29.4 µM; with SK-MEL-2 melanoma, 26.5 µM; in the test on RPMI-8226 leukemia, 25.8 µM; in the test on EKVX NSCLC, 6.37 µM; in the test with KM12 colon it was 12.5 µM; in the test on HL-60(TB) leukemia, 30.8 µM. The GI50 was 27.7 µM in the test with M14 melanoma and above 100 µM in the test with SNB-75 CNS. Also, the TGI is above 100 µM in the test with CAKI-1 renal; 83 µM in the test on SK-MEL-2 melanoma; 75 µM with RPMI-8226 leukemia; above 100 µM in the test on EKVX NSCLC; 54.9 µM in the test with KM12 colon; above 100 µM with HL-60(TB) leukemia. For the same compound, the TGI with M14 melanoma is 89.8 µM; in the test with SNB-75 CNS, above 100 µM.

In the case of `O=c1c2ccccc2nc(-c2ccccc2)n1O`, the TGI with CAKI-1 renal, in the test on SK-MEL-2 melanoma, in the test on RPMI-8226 leukemia, with EKVX NSCLC, with KM12 colon and in the test on HL-60(TB) leukemia was above 100 µM throughout. Also, the TGI with M14 melanoma and in the test on SNB-75 CNS was above 100 µM throughout.

Turning to `COC(=O)C1(C2CC/C(C)=C/CC/C(C)=C/CC[C@@]3(C)O[C@@H]3C2)CC1` (stereo partly specified), the GI50 was 32.1 µM in the test on CAKI-1 renal; above 100 µM with SK-MEL-2 melanoma; 16.9 µM in the test on RPMI-8226 leukemia; above 100 µM in the test with EKVX NSCLC; 18.9 µM with KM12 colon; 25.2 µM in the test on HL-60(TB) leukemia. For the same compound, the GI50 with M14 melanoma was 37.5 µM; with SNB-75 CNS it was above 100 µM. Further, the TGI in the test on CAKI-1 renal was above 85 µM; in the test with SK-MEL-2 melanoma, above 100 µM; in the test with RPMI-8226 leukemia it was 48.4 µM; with EKVX NSCLC, above 100 µM; with KM12 colon, 43.5 µM; with HL-60(TB) leukemia, above 83.5 µM. For the same compound, the TGI with M14 melanoma was above 72.2 µM; in the test with SNB-75 CNS, above 100 µM.

In the case of `O=C1c2ccn(CCCCN3CCCCC3)c2C(=O)c2c1c(O)c1ccccc1c2O`, the GI50 was 1.63 µM with CAKI-1 renal; above 100 µM with SK-MEL-2 melanoma; 2.74 µM in the test on RPMI-8226 leukemia; 15.2 µM in the test on EKVX NSCLC; 8.55 µM in the test on KM12 colon; 24.5 µM in the test with HL-60(TB) leukemia. In addition, the values for the GI50 in the test on M14 melanoma and with SNB-75 CNS were 2.46 µM and 8.45 µM, respectively. The TGI in the test with CAKI-1 renal is 3.83 µM; with SK-MEL-2 melanoma, above 100 µM; in the test with RPMI-8226 leukemia, 9.29 µM; in the test on EKVX NSCLC, 36.1 µM; with KM12 colon, 27.5 µM; in the test on HL-60(TB) leukemia, above 100 µM. In addition, the results for the TGI with M14 melanoma and with SNB-75 CNS were 9.7 µM and above 73.8 µM, respectively.

As to `C=C1CC2(CCCC3(CC(=C)C(=O)O3)C2(C)C)OC1=O` (stereo unspecified), the TGI in the test on CAKI-1 renal was determined as 7.43 µM; in the test on SK-MEL-2 melanoma, 27.7 µM; in the test with RPMI-8226 leukemia it was 3.57 µM; with EKVX NSCLC, 18.4 µM; in the test with KM12 colon it was 21.8 µM; with HL-60(TB) leukemia it was 5.65 µM. The TGI with M14 melanoma was determined as 8.58 µM; with SNB-75 CNS, 34.4 µM.

Regarding `CC(O)(CNS(=O)(=O)c1ccccc1)c1ccccc1` (stereo unspecified), the TGI in the test with CAKI-1 renal, in the test with SK-MEL-2 melanoma, with RPMI-8226 leukemia, in the test with EKVX NSCLC, with KM12 colon and in the test on HL-60(TB) leukemia was above 100 µM each time. For the same compound, the TGI in the test on M14 melanoma and in the test with SNB-75 CNS was above 100 µM in each case.

As to `COC1C(O)C(C)OC(OC2CC3CCC4C(CCC5(C)C(C6=CC(=O)OC6)CCC45O)C3(O)C(OC(C)=O)C2)C1O` (stereo unspecified), the TGI in the test on CAKI-1 renal was 3.43 µM; in the test on SK-MEL-2 melanoma it was 10.1 µM; with RPMI-8226 leukemia it was 7.55 µM; in the test with EKVX NSCLC it was 3.14 µM; with KM12 colon it was above 48.8 µM; with HL-60(TB) leukemia it was 4.23 µM. Further, the TGI in the test with M14 melanoma is 5.5 µM; in the test with SNB-75 CNS it was above 31.2 µM.
